Test results published in ChEMBL document CHEMBL1629711, “Synthesis and in vitro biological evaluation of new polyamine conjugates as potential anticancer drugs” (Eur J Med Chem, 2010).
Active and inactive are the calls of the source. The rule behind the calls is not given here.

Assays:
A-375 [1] = assay: Cytotoxicity against human A375 cells at 1 to 100 uM after 44 hrs by MTT assay; type: functional, cell-based
A-375 [2] = assay: Cytotoxicity against human A375 cells after 44 hrs by MTT assay; type: functional, cell-based; conditions: for IC50: A-375, 44 h
A-375 [3] = assay: Induction of necrosis in human A375 cells assessed as morphological changes at IC50 concentration after 44 hrs using acridine orange and ethidium bromide staining by fluorescence microscopy; type: functional, cell-based
A-375 [4] = assay: Induction of apoptosis in human A375 cells assessed as morphological changes at IC50 concentration after 44 hrs using acridine orange and ethidium bromide staining by fluorescence microscopy; type: functional, cell-based
A-375 [5] = assay: Cell cycle arrest in human A375 cells assessed as accumulation at G2/M phase at 20 uM after 24 hrs using propidium iodide staining by flow cytometry relative to control; type: functional
A-375 [6] = assay: Induction of apoptosis in human A375 cells assessed as morphological changes at 50 uM after 44 hrs using acridine orange and ethidium bromide staining by fluorescence microscopy; type: functional
A-375 [7] = assay: Cell cycle arrest in human A375 cells assessed as accumulation at G0/G1 phase at 20 uM after 24 hrs using propidium iodide staining by flow cytometry relative to control; type: functional
A-375 [8] = assay: Cell cycle arrest in human A375 cells assessed as accumulation at hypodiploid subG1 phase at 20 uM after 24 hrs using propidium iodide staining by flow cytometry relative to control; type: functional
A-375 [9] = assay: Cell cycle arrest in human A375 cells assessed as accumulation at S phase at 20 uM after 24 hrs using propidium iodide staining by flow cytometry relative to control; type: functional
A-375 [10] = assay: Cell cycle arrest in human A375 cells assessed as accumulation at G2/M phase at 50 uM after 24 hrs using propidium iodide staining by flow cytometry relative to control; type: functional
A-375 [11] = assay: Cell cycle arrest in human A375 cells assessed as accumulation at hypodiploid subG1 phase at 50 uM after 24 hrs using propidium iodide staining by flow cytometry relative to control; type: functional
A-375 [12] = assay: Cell cycle arrest in human A375 cells assessed as accumulation at S phase at 50 uM after 24 hrs using propidium iodide staining by flow cytometry relative to control; type: functional
A-375 [13] = assay: Cell cycle arrest in human A375 cells assessed as accumulation at G0/G1 phase at 50 uM after 24 hrs using propidium iodide staining by flow cytometry relative to control; type: functional

O=C1c2cccc([N+](=O)[O-])c2C(=O)N1CCCN1CCN(CCCN2C(=O)c3cccc([N+](=O)[O-])c3C2=O)CC1
Activity (A-375 [1]): inactive

O=C1c2cccc([N+](=O)[O-])c2C(=O)N1CCCOCCCCOCCCN1C(=O)c2cccc([N+](=O)[O-])c2C1=O
Activity (A-375 [1]): inactive

Cc1ccc2nnc(C(=O)NCCCN(C)CCCNC(=O)c3nnc4ccc(C)cc4c3N)c(N)c2c1
inhibition (A-375 [2]): Dose-dependent effect
IC50 (A-375 [2]): 116 µM
Activity (A-375 [3]): inactive
Activity (A-375 [4]): inactive

CN(CCCN1C(=O)c2ccccc2C1=O)CCCN1C(=O)c2ccccc2C1=O
Activity (A-375 [1]): inactive

Nc1c(C(=O)NCCCN2CCN(CCCNC(=O)c3cnc4ccccc4c3N)CC2)cnc2ccccc12
Activity (A-375 [5]): 21%
inhibition (A-375 [2]): Dose-dependent effect
IC50 (A-375 [2]): 16.8 µM
Activity (A-375 [6]): 30%
Activity (A-375 [7]): 49%
Activity (A-375 [3]): inactive
Activity (A-375 [8]): 4%
Activity (A-375 [9]): 31%
Activity (A-375 [4]): inactive

O=C1c2ccccc2C(=O)N1CCCN1CCN(CCCN2C(=O)c3ccccc3C2=O)CC1
Activity (A-375 [1]): inactive

O=C1c2ccccc2C(=O)N1CCCOCCCCOCCCN1C(=O)c2ccccc2C1=O
Activity (A-375 [1]): inactive

CN(CCCNC(=O)c1cnc2ccccc2c1N)CCCNC(=O)c1cnc2ccccc2c1N
inhibition (A-375 [2]): Dose-dependent effect
IC50 (A-375 [2]): 87.9 µM
Activity (A-375 [3]): inactive
Activity (A-375 [4]): inactive

CN(CCCN1C(=O)c2cccc([N+](=O)[O-])c2C1=O)CCCN1C(=O)c2cccc([N+](=O)[O-])c2C1=O
Activity (A-375 [1]): inactive

Cc1ccc2nnc(C(=O)NCCCN3CCN(CCCNC(=O)c4nnc5ccc(C)cc5c4N)CC3)c(N)c2c1
Activity (A-375 [5]): 46%
Activity (A-375 [10]): 46%
inhibition (A-375 [2]): Dose-dependent effect
IC50 (A-375 [2]): 31.6 µM
Activity (A-375 [11]): 9%
Activity (A-375 [6]): 14%
Activity (A-375 [12]): 22%
Activity (A-375 [7]): 35%
Activity (A-375 [3]): inactive
Activity (A-375 [8]): 4%
Activity (A-375 [13]): 32%
Activity (A-375 [9]): 19%
Activity (A-375 [4]): inactive

Cc1ccc2nnc(C(=O)NCCCOCCCCOCCCNC(=O)c3nnc4ccc(C)cc4c3N)c(N)c2c1
inhibition (A-375 [2]): Dose-dependent effect
IC50 (A-375 [2]): 100 µM
Activity (A-375 [3]): inactive
Activity (A-375 [4]): inactive

Nc1c(C(=O)NCCCOCCCCOCCCNC(=O)c2cnc3ccccc3c2N)cnc2ccccc12
Activity (A-375 [5]): 20%
Activity (A-375 [10]): 8%
inhibition (A-375 [2]): Dose-dependent effect
IC50 (A-375 [2]): 15.5 µM
Activity (A-375 [11]): 3%
Activity (A-375 [6]): 8%
Activity (A-375 [12]): 53%
Activity (A-375 [7]): 58%
Activity (A-375 [3]): inactive
Activity (A-375 [8]): 2%
Activity (A-375 [13]): 39%
Activity (A-375 [9]): 22%
Activity (A-375 [4]): inactive
